Results published in publication PMC6109843, “Novel Quinazolinone Inhibitors of ALK2 Flip between Alternate Binding Modes: Structure–Activity Relationship, Structural Characterization, Kinase Profiling, and Cellular Proof of Concept” (Journal of Medicinal Chemistry, 2018).

Key:
Experiment in all cases: DiscoverX scanEDGE kinase panel
Format in all cases: binding
Conditions in all cases: Cmpd Conc 1000 nM, read-out: % Ctrl
PAK4 = molecular target: T1, PAK4 (Homo sapiens, UniProt O96013)
T1 construct: purchased DiscoverX (DiscoveRx) KINOMEscan scanEDGE / KdELECT
Text: (§1) We hypothesized that inhibitors of the normal and flipped modes would display distinct selectivity profiles.
(§2) 1. 16 and 21 kinome selectivity data
(§3) (P – phosphorylated; nP – nonphosphorylated; % Ctrl values show the % of DNAEtagged
(§4) kinase which was not displaced from a solid supported ligand by a test compound relative to
(§5) untreated control, quantified by qPCR).
(§6) Please note: ALKs 1, 2, 3, 4, 5 and 6 are listed by their gene symbols: ACVRL1 (ALK1), ACVR1
(§7) (ALK2), BMPR1A (ALK3), ACVR1B (ALK4), TGFBR1 (ALK5) and BMPR1B (ALK6)
(§8) Cmpd DiscoverX Gene Symbol Entrez Gene Symbol % Ctrl Cmpd Conc (nM)

MAPKAPK2 = molecular target: T2, MAPKAPK2 (Homo sapiens, UniProt P49137)
T2 construct: purchased DiscoverX (DiscoveRx) KINOMEscan scanEDGE / KdELECT
Text: as §1, §2, §3, §4, §5, §6, §7, §8

BMPR2 = molecular target: T3, BMPR2 (Homo sapiens, UniProt Q13873)
T3 construct: purchased DiscoverX (DiscoveRx) KINOMEscan scanEDGE / KdELECT
Text: as §1, §2, §3, §4, §5, §6, §7, §8

VEGFR2 = molecular target: T4, VEGFR2 (Homo sapiens, UniProt P35968)
T4 construct: purchased DiscoverX (DiscoveRx) KINOMEscan scanEDGE / KdELECT
Text: as §1, §2, §3, §4, §5, §6, §7, §8

PKACEalpha = molecular target: T5, PKACEalpha (Homo sapiens, UniProt P17612)
T5 construct: purchased DiscoverX (DiscoveRx) KINOMEscan scanEDGE / KdELECT
Text: as §1, §2, §3, §4, §5, §6, §7, §8

BMPR1A (ALK3) = molecular target: T6, BMPR1A (ALK3) (Homo sapiens, UniProt P36894)
T6 construct: purchased DiscoverX (DiscoveRx) KINOMEscan scanEDGE / KdELECT
Text: as §1, §2, §3, §4, §5, §6, §7, §8

PIK3CG = molecular target: T7, PIK3CG (Homo sapiens, UniProt P48736)
T7 construct: purchased DiscoverX (DiscoveRx) KINOMEscan scanEDGE / KdELECT
Text: as §1, §2, §3, §4, §5, §6, §7, §8

KIT = molecular target: T8, KIT (Homo sapiens, UniProt P10721)
T8 construct: purchased DiscoverX
Text: as §1, §2, §3, §4, §5, §6, §7, §8

ABL1(E255K)EP = molecular target: T9, ABL1(E255K)EP (Homo sapiens, UniProt P00519, E255K)
T9 construct: purchased DiscoverX (DiscoveRx) KINOMEscan scanEDGE / KdELECT
Text: as §1, §2, §3, §4, §5, §6, §7, §8

ABL2 = molecular target: T10, ABL2 (Homo sapiens, UniProt P42684)
T10 construct: purchased DiscoverX (DiscoveRx) KINOMEscan scanEDGE / KdELECT
Text: as §1, §2, §3, §4, §5, §6, §7, §8

ABL1EP = molecular target: T11, ABL1EP (Homo sapiens, UniProt P00519)
T11 construct: purchased DiscoverX (DiscoveRx) KINOMEscan scanEDGE / KdELECT
Text: as §1, §2, §3, §4, §5, §6, §7, §8

PIM3 = molecular target: T12, PIM3 (Homo sapiens, UniProt Q86V86)
T12 construct: purchased DiscoverX (DiscoveRx) KINOMEscan scanEDGE / KdELECT
Text: as §1, §2, §3, §4, §5, §6, §7, §8

MAP3K4 = molecular target: T13, MAP3K4 (Homo sapiens, UniProt Q9Y6R4)
T13 construct: purchased DiscoverX (DiscoveRx) KINOMEscan scanEDGE / KdELECT
Text: as §1, §2, §3, §4, §5, §6, §7, §8

p38Ealpha = molecular target: T14, p38Ealpha (Homo sapiens, UniProt Q16539)
T14 construct: purchased DiscoverX (DiscoveRx) KINOMEscan scanEDGE / KdELECT
Text: as §1, §2, §3, §4, §5, §6, §7, §8

KIT(V559D,T670I) = molecular target: T15, KIT(V559D,T670I) (Homo sapiens, UniProt P10721, T670I/V559D)
T15 construct: purchased DiscoverX (DiscoveRx) KINOMEscan scanEDGE / KdELECT
Text: as §1, §2, §3, §4, §5, §6, §7, §8

BMPR1B (ALK6) = molecular target: T16, BMPR1B (ALK6) (Homo sapiens, UniProt O00238)
T16 construct: purchased DiscoverX (DiscoveRx) KINOMEscan scanEDGE / KdELECT
Text: as §1, §2, §3, §4, §5, §6, §7, §8

AKT1 = molecular target: T17, AKT1 (Homo sapiens, UniProt P31749)
T17 construct: purchased DiscoverX (DiscoveRx) KINOMEscan scanEDGE / KdELECT
Text: as §1, §2, §3, §4, §5, §6, §7, §8

MEK1 = molecular target: T18, MEK1 (Homo sapiens, UniProt Q02750)
T18 construct: purchased DiscoverX (DiscoveRx) KINOMEscan scanEDGE / KdELECT
Text: as §1, §2, §3, §4, §5, §6, §7, §8

ERK1 = molecular target: T19, ERK1 (Homo sapiens, UniProt P27361)
T19 construct: purchased DiscoverX (DiscoveRx) KINOMEscan scanEDGE / KdELECT
Text: as §1, §2, §3, §4, §5, §6, §7, §8

PIK3CA = molecular target: T20, PIK3CA (Homo sapiens, UniProt P42336)
T20 construct: purchased DiscoverX (DiscoveRx) KINOMEscan scanEDGE / KdELECT
Text: as §1, §2, §3, §4, §5, §6, §7, §8

JNK3 = molecular target: T21, JNK3 (Homo sapiens, UniProt P53779)
T21 construct: purchased DiscoverX (DiscoveRx) KINOMEscan scanEDGE / KdELECT
Text: as §1, §2, §3, §4, §5, §6, §7, §8

MKNK2 = molecular target: T22, MKNK2 (Homo sapiens, UniProt Q9HBH9)
T22 construct: purchased DiscoverX (DiscoveRx) KINOMEscan scanEDGE / KdELECT
Text: as §1, §2, §3, §4, §5, §6, §7, §8

JAK2(JH1domain) = molecular target: T23, JAK2(JH1domain) (Homo sapiens, UniProt O60674)
T23 construct: JAK2(JH1domain); purchased DiscoverX (DiscoveRx) KINOMEscan scanEDGE / KdELECT
Text: as §1, §2, §3, §4, §5, §6, §7, §8

PRKCE = molecular target: T24, PRKCE (Homo sapiens, UniProt Q02156)
T24 construct: purchased DiscoverX (DiscoveRx) KINOMEscan scanEDGE / KdELECT
Text: as §1, §2, §3, §4, §5, §6, §7, §8

JNK1 = molecular target: T25, JNK1 (Homo sapiens, UniProt P45983)
T25 construct: purchased DiscoverX (DiscoveRx) KINOMEscan scanEDGE / KdELECT
Text: as §1, §2, §3, §4, §5, §6, §7, §8

PIM2 = molecular target: T26, PIM2 (Homo sapiens, UniProt Q9P1W9)
T26 construct: purchased DiscoverX (DiscoveRx) KINOMEscan scanEDGE / KdELECT
Text: as §1, §2, §3, §4, §5, §6, §7, §8

DYRK1B = molecular target: T27, DYRK1B (Homo sapiens, UniProt Q9Y463)
T27 construct: purchased DiscoverX (DiscoveRx) KINOMEscan scanEDGE / KdELECT
Text: as §1, §2, §3, §4, §5, §6, §7, §8

IKKEbeta = molecular target: T28, IKKEbeta (Homo sapiens, UniProt O14920)
T28 construct: purchased DiscoverX (DiscoveRx) KINOMEscan scanEDGE / KdELECT
Text: as §1, §2, §3, §4, §5, §6, §7, §8

p38Ebeta = molecular target: T29, p38Ebeta (Homo sapiens, UniProt Q15759)
T29 construct: purchased DiscoverX (DiscoveRx) KINOMEscan scanEDGE / KdELECT
Text: as §1, §2, §3, §4, §5, §6, §7, §8

PIK3C2B = molecular target: T30, PIK3C2B (Homo sapiens, UniProt O00750)
T30 construct: purchased DiscoverX (DiscoveRx) KINOMEscan scanEDGE / KdELECT
Text: as §1, §2, §3, §4, §5, §6, §7, §8

FAK = molecular target: T31, FAK (Homo sapiens, UniProt Q05397)
T31 construct: purchased DiscoverX (DiscoveRx) KINOMEscan scanEDGE / KdELECT
Text: as §1, §2, §3, §4, §5, §6, §7, §8

MET = molecular target: T32, MET (Homo sapiens, UniProt P08581)
T32 construct: purchased DiscoverX (DiscoveRx) KINOMEscan scanEDGE / KdELECT
Text: as §1, §2, §3, §4, §5, §6, §7, §8

INSR = molecular target: T33, INSR (Homo sapiens, UniProt P06213)
T33 construct: purchased DiscoverX (DiscoveRx) KINOMEscan scanEDGE / KdELECT
Text: as §1, §2, §3, §4, §5, §6, §7, §8

ACVR2A = molecular target: T34, ACVR2A (Homo sapiens, UniProt P27037)
T34 construct: purchased DiscoverX (DiscoveRx) KINOMEscan scanEDGE / KdELECT
Text: as §1, §2, §3, §4, §5, §6, §7, §8

EPHA2 = molecular target: T35, EPHA2 (Homo sapiens, UniProt P29317)
T35 construct: purchased DiscoverX (DiscoveRx) KINOMEscan scanEDGE / KdELECT
Text: as §1, §2, §3, §4, §5, §6, §7, §8

PAK2 = molecular target: T36, PAK2 (Homo sapiens, UniProt Q13177)
T36 construct: purchased DiscoverX (DiscoveRx) KINOMEscan scanEDGE / KdELECT
Text: as §1, §2, §3, §4, §5, §6, §7, §8

RIPK2 = molecular target: T37, RIPK2 (Homo sapiens, UniProt O43353)
T37 construct: purchased DiscoverX (DiscoveRx) KINOMEscan scanEDGE / KdELECT
Text: as §1, §2, §3, §4, §5, §6, §7, §8

LCK = molecular target: T38, LCK (Homo sapiens, UniProt P06239)
T38 construct: purchased DiscoverX (DiscoveRx) KINOMEscan scanEDGE / KdELECT
Text: as §1, §2, §3, §4, §5, §6, §7, §8

DCAMKL1 = molecular target: T39, DCAMKL1 (Homo sapiens, UniProt O15075)
T39 construct: purchased DiscoverX (DiscoveRx) KINOMEscan scanEDGE / KdELECT
Text: as §1, §2, §3, §4, §5, §6, §7, §8

T33 sequence (P06213 28-1382): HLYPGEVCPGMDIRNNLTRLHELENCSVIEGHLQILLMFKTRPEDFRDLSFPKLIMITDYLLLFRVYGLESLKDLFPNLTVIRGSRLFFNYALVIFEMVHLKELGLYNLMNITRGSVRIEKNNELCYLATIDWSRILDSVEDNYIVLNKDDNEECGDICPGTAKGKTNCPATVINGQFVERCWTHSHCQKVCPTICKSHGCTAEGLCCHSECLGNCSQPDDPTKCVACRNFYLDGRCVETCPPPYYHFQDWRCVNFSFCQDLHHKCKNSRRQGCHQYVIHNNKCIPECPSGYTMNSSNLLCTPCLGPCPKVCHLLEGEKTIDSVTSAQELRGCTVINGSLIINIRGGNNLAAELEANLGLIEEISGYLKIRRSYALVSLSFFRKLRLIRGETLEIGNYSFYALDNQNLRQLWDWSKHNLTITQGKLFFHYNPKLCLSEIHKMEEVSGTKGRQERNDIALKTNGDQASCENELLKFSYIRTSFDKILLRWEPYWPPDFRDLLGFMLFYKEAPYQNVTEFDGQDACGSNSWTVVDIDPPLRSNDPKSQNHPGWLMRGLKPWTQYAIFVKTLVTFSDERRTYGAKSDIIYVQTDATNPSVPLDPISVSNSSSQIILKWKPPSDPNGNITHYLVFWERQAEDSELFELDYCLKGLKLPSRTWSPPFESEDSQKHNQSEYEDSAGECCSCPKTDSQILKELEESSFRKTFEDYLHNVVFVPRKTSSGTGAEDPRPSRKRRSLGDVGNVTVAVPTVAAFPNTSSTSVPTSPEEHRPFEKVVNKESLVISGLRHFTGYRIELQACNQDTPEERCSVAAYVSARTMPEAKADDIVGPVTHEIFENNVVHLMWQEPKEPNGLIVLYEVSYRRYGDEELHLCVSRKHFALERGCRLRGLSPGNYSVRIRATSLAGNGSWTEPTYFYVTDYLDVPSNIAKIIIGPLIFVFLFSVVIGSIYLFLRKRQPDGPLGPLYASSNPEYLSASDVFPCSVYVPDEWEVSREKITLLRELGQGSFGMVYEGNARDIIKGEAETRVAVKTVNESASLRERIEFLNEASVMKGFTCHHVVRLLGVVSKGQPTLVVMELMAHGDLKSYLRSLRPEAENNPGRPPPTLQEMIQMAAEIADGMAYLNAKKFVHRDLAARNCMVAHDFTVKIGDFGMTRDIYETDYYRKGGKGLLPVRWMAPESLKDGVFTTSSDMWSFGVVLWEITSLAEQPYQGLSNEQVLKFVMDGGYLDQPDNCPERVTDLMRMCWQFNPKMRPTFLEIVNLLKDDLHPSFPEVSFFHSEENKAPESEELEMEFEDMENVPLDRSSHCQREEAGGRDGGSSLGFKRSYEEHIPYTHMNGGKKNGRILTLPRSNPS
T29 sequence (Q15759 whole entry): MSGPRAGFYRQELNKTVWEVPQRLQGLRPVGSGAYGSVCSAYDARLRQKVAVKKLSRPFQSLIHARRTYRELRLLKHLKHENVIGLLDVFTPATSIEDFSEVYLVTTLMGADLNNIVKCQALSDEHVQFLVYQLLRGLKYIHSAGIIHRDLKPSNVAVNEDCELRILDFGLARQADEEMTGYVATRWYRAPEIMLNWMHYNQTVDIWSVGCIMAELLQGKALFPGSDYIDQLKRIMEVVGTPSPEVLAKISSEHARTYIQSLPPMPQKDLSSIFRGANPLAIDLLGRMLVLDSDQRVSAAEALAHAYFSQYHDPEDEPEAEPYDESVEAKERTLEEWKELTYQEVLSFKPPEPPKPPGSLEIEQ
T38 sequence (P06239 whole entry): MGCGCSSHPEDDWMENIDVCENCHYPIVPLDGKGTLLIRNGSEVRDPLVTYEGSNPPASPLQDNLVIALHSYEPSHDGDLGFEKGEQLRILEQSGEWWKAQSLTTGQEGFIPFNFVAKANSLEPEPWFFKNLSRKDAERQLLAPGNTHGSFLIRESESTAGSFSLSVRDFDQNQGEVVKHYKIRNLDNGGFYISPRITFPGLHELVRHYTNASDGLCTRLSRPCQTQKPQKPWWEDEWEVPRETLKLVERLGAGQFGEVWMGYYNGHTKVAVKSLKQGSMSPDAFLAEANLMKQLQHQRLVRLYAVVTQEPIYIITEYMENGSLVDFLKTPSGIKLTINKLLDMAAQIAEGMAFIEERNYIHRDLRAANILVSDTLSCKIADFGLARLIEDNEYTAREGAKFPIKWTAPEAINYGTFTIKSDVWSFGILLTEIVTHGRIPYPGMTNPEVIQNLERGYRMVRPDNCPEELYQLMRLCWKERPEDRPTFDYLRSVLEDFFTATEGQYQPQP
T36 sequence (Q13177 whole entry): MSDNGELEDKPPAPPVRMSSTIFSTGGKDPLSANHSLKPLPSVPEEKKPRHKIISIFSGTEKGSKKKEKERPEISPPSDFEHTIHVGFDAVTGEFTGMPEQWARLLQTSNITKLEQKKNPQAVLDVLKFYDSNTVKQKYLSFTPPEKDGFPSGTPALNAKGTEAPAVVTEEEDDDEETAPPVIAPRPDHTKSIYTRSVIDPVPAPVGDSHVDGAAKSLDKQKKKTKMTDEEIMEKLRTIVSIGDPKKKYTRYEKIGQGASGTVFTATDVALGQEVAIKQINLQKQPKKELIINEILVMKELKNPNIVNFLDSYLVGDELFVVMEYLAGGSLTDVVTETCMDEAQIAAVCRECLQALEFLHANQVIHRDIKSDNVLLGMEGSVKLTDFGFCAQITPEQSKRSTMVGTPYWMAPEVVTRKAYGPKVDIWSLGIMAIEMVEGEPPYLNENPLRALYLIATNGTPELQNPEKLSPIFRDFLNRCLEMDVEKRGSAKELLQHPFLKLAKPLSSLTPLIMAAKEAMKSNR
T32 sequence (P08581 25-1390): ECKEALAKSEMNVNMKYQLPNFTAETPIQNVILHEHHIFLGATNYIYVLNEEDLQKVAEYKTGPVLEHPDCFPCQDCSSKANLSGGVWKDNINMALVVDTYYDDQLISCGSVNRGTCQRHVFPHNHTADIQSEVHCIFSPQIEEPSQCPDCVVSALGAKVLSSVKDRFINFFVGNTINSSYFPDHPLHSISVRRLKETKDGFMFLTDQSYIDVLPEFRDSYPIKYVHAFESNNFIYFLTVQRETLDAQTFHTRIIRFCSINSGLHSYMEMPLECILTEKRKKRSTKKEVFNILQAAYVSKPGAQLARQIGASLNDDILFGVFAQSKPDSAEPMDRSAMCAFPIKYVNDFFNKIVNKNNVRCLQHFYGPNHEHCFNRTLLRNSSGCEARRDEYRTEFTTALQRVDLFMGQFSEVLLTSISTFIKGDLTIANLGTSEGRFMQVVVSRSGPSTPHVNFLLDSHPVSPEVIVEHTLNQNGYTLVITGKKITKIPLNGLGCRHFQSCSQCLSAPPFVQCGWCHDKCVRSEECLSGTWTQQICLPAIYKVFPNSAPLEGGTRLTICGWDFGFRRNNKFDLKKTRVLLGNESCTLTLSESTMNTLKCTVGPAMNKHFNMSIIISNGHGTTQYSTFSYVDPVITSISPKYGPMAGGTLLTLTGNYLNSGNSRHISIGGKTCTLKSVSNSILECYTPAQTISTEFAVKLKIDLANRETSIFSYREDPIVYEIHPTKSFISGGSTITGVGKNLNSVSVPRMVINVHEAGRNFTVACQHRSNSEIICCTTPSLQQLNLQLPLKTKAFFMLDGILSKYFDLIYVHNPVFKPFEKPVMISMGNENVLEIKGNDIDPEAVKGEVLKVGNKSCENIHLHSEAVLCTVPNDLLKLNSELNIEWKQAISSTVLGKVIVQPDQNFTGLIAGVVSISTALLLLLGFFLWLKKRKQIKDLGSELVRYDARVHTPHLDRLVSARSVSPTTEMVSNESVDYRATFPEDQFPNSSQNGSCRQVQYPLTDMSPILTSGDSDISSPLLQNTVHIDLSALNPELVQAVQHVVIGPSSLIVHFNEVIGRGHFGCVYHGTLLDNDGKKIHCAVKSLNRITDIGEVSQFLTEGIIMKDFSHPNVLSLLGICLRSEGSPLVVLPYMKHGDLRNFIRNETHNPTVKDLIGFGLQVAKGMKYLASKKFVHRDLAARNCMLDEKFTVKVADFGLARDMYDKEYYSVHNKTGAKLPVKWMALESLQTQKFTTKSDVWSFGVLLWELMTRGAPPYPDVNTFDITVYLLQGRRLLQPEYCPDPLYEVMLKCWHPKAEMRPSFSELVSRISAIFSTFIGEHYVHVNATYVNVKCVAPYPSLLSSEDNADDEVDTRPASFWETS
T37 sequence (O43353 whole entry): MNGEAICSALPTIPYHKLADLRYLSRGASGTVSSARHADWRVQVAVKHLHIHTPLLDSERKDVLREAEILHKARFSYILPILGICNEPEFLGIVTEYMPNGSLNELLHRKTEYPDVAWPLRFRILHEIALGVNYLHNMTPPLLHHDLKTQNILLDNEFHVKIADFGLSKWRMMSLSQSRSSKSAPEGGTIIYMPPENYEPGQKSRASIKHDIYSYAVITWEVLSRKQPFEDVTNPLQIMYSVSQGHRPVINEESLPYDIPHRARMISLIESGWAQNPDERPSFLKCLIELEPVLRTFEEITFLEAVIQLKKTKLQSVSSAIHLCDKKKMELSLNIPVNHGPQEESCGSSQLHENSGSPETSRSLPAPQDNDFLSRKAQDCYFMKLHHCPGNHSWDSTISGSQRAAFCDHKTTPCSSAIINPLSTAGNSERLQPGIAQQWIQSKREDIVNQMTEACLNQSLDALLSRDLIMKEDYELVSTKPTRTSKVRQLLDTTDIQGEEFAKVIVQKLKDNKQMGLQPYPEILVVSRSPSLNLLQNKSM
T2 sequence (P49137 whole entry): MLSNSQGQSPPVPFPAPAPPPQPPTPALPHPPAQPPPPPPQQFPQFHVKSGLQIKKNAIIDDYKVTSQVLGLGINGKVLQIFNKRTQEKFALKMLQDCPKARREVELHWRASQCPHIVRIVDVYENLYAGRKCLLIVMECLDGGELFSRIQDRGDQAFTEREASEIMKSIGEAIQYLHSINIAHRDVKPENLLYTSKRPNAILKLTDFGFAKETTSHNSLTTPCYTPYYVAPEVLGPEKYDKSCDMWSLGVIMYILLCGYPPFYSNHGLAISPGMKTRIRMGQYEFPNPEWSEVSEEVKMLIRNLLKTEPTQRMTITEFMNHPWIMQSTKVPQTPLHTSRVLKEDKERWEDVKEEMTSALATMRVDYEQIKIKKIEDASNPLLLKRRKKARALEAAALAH

## O=c1c2cc(-c3ccnc4ccccc34)ccc2ncn1-c1ccc(N2CCOCC2)cc1 [compound 16, 3-(4-Morpholinophenyl)-6-(quinolin-4-yl)quinazolin-4(3H)-one]
PAK4
  remaining binding at 1 µM: 97%
MAPKAPK2
  remaining binding at 1 µM: 96%
BMPR2
  remaining binding at 1 µM: 64%
VEGFR2
  remaining binding at 1 µM: 95%
PKACEalpha
  remaining binding at 1 µM: 89%
BMPR1A (ALK3)
  remaining binding at 1 µM: 77%
PIK3CG
  remaining binding at 1 µM: 100%
KIT
  remaining binding at 1 µM: 1.8%
ABL1(E255K)EP
  remaining binding at 1 µM: 84%
ABL2
  remaining binding at 1 µM: 97%
ABL1EP
  remaining binding at 1 µM: 77%
PIM3
  remaining binding at 1 µM: 100%
MAP3K4
  remaining binding at 1 µM: 100%
p38Ealpha
  remaining binding at 1 µM: 100%
KIT(V559D,T670I)
  remaining binding at 1 µM: 100%
BMPR1B (ALK6)
  remaining binding at 1 µM: 4.1%
AKT1
  remaining binding at 1 µM: 94%
MEK1
  remaining binding at 1 µM: 89%
ERK1
  remaining binding at 1 µM: 97%
PIK3CA
  remaining binding at 1 µM: 100%
JNK3
  remaining binding at 1 µM: 98%
MKNK2
  remaining binding at 1 µM: 100%
JAK2(JH1domain)
  remaining binding at 1 µM: 99%
PRKCE
  remaining binding at 1 µM: 92%
JNK1
  remaining binding at 1 µM: 100%
PIM2
  remaining binding at 1 µM: 89%
DYRK1B
  remaining binding at 1 µM: 90%
IKKEbeta
  remaining binding at 1 µM: 84%
p38Ebeta
  remaining binding at 1 µM: 100%
PIK3C2B
  remaining binding at 1 µM: 100%
FAK
  remaining binding at 1 µM: 97%
MET
  remaining binding at 1 µM: 80%
INSR
  remaining binding at 1 µM: 100%
ACVR2A
  remaining binding at 1 µM: 100%
EPHA2
  remaining binding at 1 µM: 100%
PAK2
  remaining binding at 1 µM: 54%
RIPK2
  remaining binding at 1 µM: 88%
LCK
  remaining binding at 1 µM: 98%
DCAMKL1
  remaining binding at 1 µM: 92%
